Data taken from patent US10507247B2, “Optical probes for matrix metalloproteinases” (The University Court of the University of Edinburgh, priority 2015, dated 2019).
Primed or numbered codes have the meaning given here. Where no end group is shown, it is not given here. [ ]: non-standard residue; d: D form. The star is where a group is joined. 5FAM = O=C1OC2(c3ccc(O)cc3Oc3cc(O)ccc32)c2ccc(C(=O)*)cc21; PEG2′ = PEG spacer unit (glycol linker); K(MR) = not defined here; Nle = CCCC[C@H](N)C(=O)O; Ahx = NCCCCCC(=O)O; βAla = NCCC(=O)O

Assays:
MMP-2/9/13 in the lung = test: Ex vivo and in vivo ovine lung and human lung tissue imaging by fCFM; details: lung environment
Procedure: All compounds have undergone biological assessment. For stability we have assessed each compound in the presence of 0.9% NaCl (Saline) or pooled lavage fluid from patients with acute lung injury and analysed by matrix-assisted laser desorption/ionization (MALDI) or fourier transform mass spectrometry (FTMS). In vitro activation was assessed on benchtop confocal in the presence of compound with lung tissue samples. For the ex vivo and in vivo ovine lung (FIG. 11) and human lung tissue experiments (FIG. 12) each compound was assessed in a control lung segment (instilled with 2 ml PBS) or a fibrotic/cancer segment, the compound was administered to the segment of interest and this was imaged by probe based fCFM.

[1] = test system: MMPs-1, -2, -3, -7, -8, -9, -10, -11, -12, -13, Thrombin, Plasmin and Factor Xa; test: Enzyme specificity of the FRET branched probes with exogenous enzymes (FIG. 8); type: biochemical, human; details: probe 10 μM; for selectivity for MMP-2/9: MMPs 30 nM, Thrombin 5 U/ml, Plasmin 30 nM, Factor Xa 0.5 μM
Procedure: (§1) FIG. 8. Enzyme specificity of the FRET branched probes A, B and C. Data represents the average fold change in fluorescence over background signal provided by probe (10 μM) with exogenous enzymes using a multiwell plate fluorimeter (Synergy H1 Hybrid Reader, BioTek instruments Ltd) at excitation/emission 485/528 nm. Recombinant human catalytic domain MMPs-1, -2, -3, -7, -8, -9, -10, -11, -12, -13 were used at 30 nM. Recombinant human Thrombin, Plasmin and Factor Xa were used at 5 U/ml, 30 nM, 0.5 μM, respectively.
(§2) Three selected probes (A: AMF-106, B: SVC-186 B, and C: SVC-196) were evaluated in vitro in a new experiment including other members of the MMP family (MMPs-1, -2, -3, -7, -8, -9, -10, -11, -12, -13) as well as Thrombin, Plasmin and Factor Xa, and the results are shown in FIG. 8. […] The plasmin cleavage site was identified and attempts to make a resistant version replacing with D-aa in these positions were unsuccessful.
(§3) The enzyme assays were run in a 384-well format on a PCR opaque microplate (Thermo Scientific). All dilutions and reactions were prepared in MMP buffer (50 mM Tris, 10 mM CaCl2, 0.15M NaCl, 0.05% Brij-35, pH 7). Proteolytic activity was determined by calculating the fold change in fluorescence over background signal provided by the corresponding dilution of the probe and/or inhibitors with exogenous enzymes using a-multiwell plate fluorimeter (Synergy H1 Hybrid Reader, BioTek instruments Ltd) at excitation/emission 485/528 nm. Recombinant human MMPs (Catalytic domain MMP-1, -2, -3, -7, -8, -9, -10, -11, -12, -13 (Enzo Life Sciences) and Full-length MMP-2, -9, -12 and -13 (Merck/Millipore)) were used at 30 nM. Pro-MMP-13 (R & D Systems) was activated by incubating with 1 mM 4-aminophenylmercunc acetate (APMA) for 2 hrs at 37° C. Human neutrophil elastase (Elastase Product Company, used at 2.5 ug/ml), neutrophil lysate (lysed human neutrophils), and recombinant human Thrombin (Sigma-Aldrich, used at 5 U/ml), Plasmin (Sigma-Aldrich, used at 30 nM) and Factor Xa (Sigma-Aldrich, used at 0.5 μM) were used to identify the lead molecular probe sequences. For inhibition assays, enzyme and inhibitor were pre-incubated for 1 hr at 37° C. before the addition of molecular probe.

MMP-13 [2] = test: Enzyme assay, fold change in probe fluorescence over background with MMP-13; type: biochemical, human; details: different probe scaffolds (monomer, dendrimers); MMP-13 52 kDa
Procedure: (§4) Enzyme specificity of the lead probes with exogenous enzymes was tested using a multiwell plate fluorimeter at excitation/emission 485/528 nm (Table 3). Recombinant human catalytic domain MMPs-1, -2, -3, -7, -8, -9, -10, -11, -12, -13 were used at 30 nM. Cleavage site for each sequence is indicated in italics.
(§5) The different compounds were also evaluated according to the fold change in fluorescent signal in presence of MMP-9 and MMP-13, and the results are shown in Table 7. From this comparison, the FRET dendrimers comprising SEQ ID NO.1 and SEQ ID NO.7 (AMF-106 and SVC-186) together with the 9Dendrimer comprising SEQ ID NO.7 (SVC-196) were chosen for further evaluation. These dendrimers are shown in FIG. 7, probe A (AMF-106), probe B (SVC-186) and probe C (SVC-196).
as §3

plasmin = target: T1, plasmin (Homo sapiens, UniProt P00747); test: Susceptibility / stability of probes to plasmin; type: biochemical
T1 construct: purchased Sigma-Aldrich
Procedure: as §1
Also, to reduce degradation without altering the amino acid constituents we have synthesised variants including PEG units at the amino and/or carboxy termini in order to block degradation from the ends of the peptide sequence.
as §2
as §3, with “Human neutrophil elastase (Elastase Product Company, used at 2.5 ug/ml), neutrophil lysate (lysed human neutrophils), and recombinant human Thrombin (Sigma-Aldrich, used at 5 U/ml), Plasmin (Sigma-Aldrich, used at 30 nM) and Factor Xa (Sigma-Aldrich, used at 0.5 μM) were used to identify the lead molecular probe sequences. For inhibition assays, enzyme and inhibitor were pre-incubated for 1 hr at 37° C. before the addition of molecular probe.” left out

MMP-9 = test: Enzyme assay, fold change in probe fluorescence over background with MMP-9; type: biochemical, human; details: for MMP-9 (83 kDa), fold change in fluorescent signal: different probe scaffolds (monomer, dendrimers); for MMP-9 (39.0 kDa), fold change in fluorescence over background: FRET monomers, recombinant human catalytic domain MMP at 30 nM, ex/em 485/528 nm
Procedure: A library of probes (listed in Table 2 below) containing FAM (Carboxyfluorescein) as the fluorophore (donor) and MethylRed (MR) as the quencher (acceptor) and a variety of peptide sequences was synthesized by manual standard solid-phase Fmoc peptide chemistry (described below).
as §4, §5, §3

MMP-2 = test: Enzyme assay, fold change in probe fluorescence over background with MMP-2; type: biochemical; details: FRET monomers; recombinant human catalytic domain MMP at 30 nM; ex/em 485/528 nm
Procedure: as §4, §3

Thrombin = target: T2, Thrombin (Homo sapiens, UniProt P00734); test: Enzyme assay, fold change in probe fluorescence with Thrombin; type: biochemical; details: recombinant human Thrombin 5 U/ml; ex/em 485/528 nm
T2 construct: purchased Sigma-Aldrich
Procedure: as §4, §3

MMP-13 [3] = target: MMP-13 (Homo sapiens, UniProt P45452); test: Enzyme assay, fold change in probe fluorescence over background with MMP-13; type: biochemical; set-up: purchased Enzo Life Sciences (catalytic domain); Merck/Millipore (full-length); details: FRET monomers; recombinant human catalytic domain MMP at 30 nM; ex/em 485/528 nm
Procedure: as §4, §5, §3

MMP-12 = target: T3, MMP-12 (Homo sapiens, UniProt P39900); test: Enzyme assay, fold change in probe fluorescence over background with MMP-12; type: biochemical; details: FRET monomers; recombinant human catalytic domain MMP at 30 nM; ex/em 485/528 nm
T3 construct: Recombinant human catalytic domain MMPs-1, -2, -3, -7, -8, -9, -10, -11, -12, -13 were used at 30 nM; purchased Enzo Life Sciences
Procedure: as §4, §3

MMP [4] = test: Activation of probe variants by MMP in vitro; type: biochemical
Procedure: The selectivity of the probes, together with further probes AMF-14b, SVC-030 (both defined in Table 6 below) and SVC-068 (defined in Table 4 below), to detect MMP over elastase, another proteinase relevant in lung disease, was tested and the results for all probes are shown in FIG. 2.
Variants consisting of D-amino acids at the recognition site sequence with or without blocking PEG units were also synthesised and assessed.
as §3

MMP [5] = test: Probe specificity by target inhibition (FIG. 9); type: biochemical, human; details: probe 1 μM, 30 min, inhibitor 200 nM
Procedure: Probe specificity by target inhibition for probes A and probe B. Data represents the fluorescence signal provided by the probe (1 μM) after 30 min using a multiwell plate fluorimeter at excitation/emission 485/528 nm. To validate the specificity and ability of molecular probe to detect the target enzyme, probe fluorescence (initiated by cleavage) was measured in the presence of enzyme with/without inhibitor.
The enzyme assays were run in a 384-well format on a PCR opaque microplate (Thermo Scientific). All dilutions and reactions were prepared in MMP buffer (50 mM Tris, 10 mM CaCl2, 0.15M NaCl, 0.05% Brij-35, pH 7). Proteolytic activity was determined by calculating the fold change in fluorescence over background signal provided by the corresponding dilution of the probe and/or inhibitors with exogenous enzymes using a-multiwell plate fluorimeter (Synergy H1 Hybrid Reader, BioTek instruments Ltd) at excitation/emission 485/528 nm. Recombinant human MMPs (Catalytic domain MMP-1, -2, -3, -7, -8, -9, -10, -11, -12, -13 (Enzo Life Sciences) and Full-length MMP-2, -9, -12 and -13 (Merck/Millipore)) were used at 30 nM. Pro-MMP-13 (R & D Systems) was activated by incubating with 1 mM 4-aminophenylmercunc acetate (APMA) for 2 hrs at 37° C. […] For inhibition assays, enzyme and inhibitor were pre-incubated for 1 hr at 37° C. before the addition of molecular probe.

Sequence of MMP-2 (P08253 with tags, fused parts or gaps DEL222-396 limits assumed): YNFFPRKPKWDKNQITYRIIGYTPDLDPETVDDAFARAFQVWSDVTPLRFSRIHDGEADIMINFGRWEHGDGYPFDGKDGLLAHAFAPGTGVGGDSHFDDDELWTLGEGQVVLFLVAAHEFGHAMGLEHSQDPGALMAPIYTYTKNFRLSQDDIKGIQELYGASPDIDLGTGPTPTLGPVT
T3 sequence (P39900 106-263 limits assumed): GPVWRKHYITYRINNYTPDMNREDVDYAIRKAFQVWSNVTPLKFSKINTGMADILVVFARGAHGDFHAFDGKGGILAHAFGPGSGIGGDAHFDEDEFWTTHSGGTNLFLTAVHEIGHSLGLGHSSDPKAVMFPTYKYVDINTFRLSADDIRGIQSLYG
T1 sequence (P00747 581-810 limits assumed): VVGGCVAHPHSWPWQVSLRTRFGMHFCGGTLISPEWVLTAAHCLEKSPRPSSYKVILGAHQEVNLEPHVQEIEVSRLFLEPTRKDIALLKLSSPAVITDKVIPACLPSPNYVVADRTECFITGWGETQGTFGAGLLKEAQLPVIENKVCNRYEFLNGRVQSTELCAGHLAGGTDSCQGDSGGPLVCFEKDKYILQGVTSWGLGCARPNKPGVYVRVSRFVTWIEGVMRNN
T1 sequence (P00747 97-580 partner limits assumed): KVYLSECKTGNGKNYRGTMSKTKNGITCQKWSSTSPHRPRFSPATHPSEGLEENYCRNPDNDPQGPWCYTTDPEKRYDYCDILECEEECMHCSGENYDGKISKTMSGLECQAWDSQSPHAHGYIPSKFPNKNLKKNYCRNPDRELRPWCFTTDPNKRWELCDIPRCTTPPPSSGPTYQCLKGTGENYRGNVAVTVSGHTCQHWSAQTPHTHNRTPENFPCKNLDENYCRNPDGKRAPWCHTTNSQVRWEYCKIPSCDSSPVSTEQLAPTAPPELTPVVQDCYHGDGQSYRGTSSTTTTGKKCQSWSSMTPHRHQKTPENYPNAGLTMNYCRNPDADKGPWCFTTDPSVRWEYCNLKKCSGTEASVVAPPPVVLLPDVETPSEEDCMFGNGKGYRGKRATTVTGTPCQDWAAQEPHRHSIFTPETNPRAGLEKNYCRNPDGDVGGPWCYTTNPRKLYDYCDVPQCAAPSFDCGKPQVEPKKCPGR

Compound: FAM-PEG2-PFGNleKβA-K(MR)-PEG2-k-PEG2-k-3 probe elements ({5FAM-PEG2′}-PFG[Nle]K[βAla]-{K(MR)-PEG2′-code k-PEG2′-code k}; reading uncertain; also: three probe elements on a scaffold) [SVC-186]
- activation in the presence of MMP-2/9/13 in the lung (MMP-2/9/13 in the lung): able to activate
- selectivity for MMP-2/9 [1]: better selectivity for MMP-2/9
- MMP-13 (52 kDa), fold change in fluorescent signal (MMP-13 [2]): 26.65
- stability / susceptibility to plasmin (plasmin; listed as Probe B): plasmin resistant
- stability / susceptibility to plasmin (plasmin; listed as SVC-01-186): stable
- MMP-9 (83 kDa), fold change in fluorescent signal (MMP-9): 6.49

Compound: FAM-K(FAM)-PEG2-PFGNleKβA-PEG2-k-PEG2-k-3 probe elements [SVC-189]
- MMP-13 (52 kDa), fold change in fluorescent signal (MMP-13 [2]): 7.11
- MMP-9 (83 kDa), fold change in fluorescent signal (MMP-9): 2.92

Compound: FAM-PEG2-P-F-G-Nle-K-βA-K(MR)-K-K-PEG2-PEG2-NH2 [AMF-92]
- MMP-13 (52 kDa), fold change in fluorescent signal (MMP-13 [2]): 19.30
- MMP-9 (83 kDa), fold change in fluorescent signal (MMP-9): 4.75

Compound: MR-K(Ac)-PEG2-GPKGLKG-K(FAM)-PEG2-k-PEG2-k-PEG2-k-NH2 [AMF-111]
- MMP-13 (52 kDa), fold change in fluorescent signal (MMP-13 [2]): 10.57
- MMP-9 (83 kDa), fold change in fluorescent signal (MMP-9): 3.66

Compound: FAM-PEG2-PFGNleKβA-PEG2-k-PEG2-k-3 probe elements [SVC-188]
- MMP-13 (52 kDa), fold change in fluorescent signal (MMP-13 [2]): 1.80
- MMP-9 (83 kDa), fold change in fluorescent signal (MMP-9): 1.41

Compound: FAM-PEG2-P-Cha-G-M-K-βA-K(MR)-NH2 [SVC-20]
- MMP-2 (20.3 kDa), fold change in fluorescence over background (MMP-2): 5.22
- Inflammatory mediators: Thrombin, fold change in fluorescence over background (Thrombin): 1.00
- MMP-13 (20.4 kDa), fold change in fluorescence over background (MMP-13 [3]): 15.9
- MMP-9 (39.0 kDa), fold change in fluorescence over background (MMP-9): 9.61
- MMP-12 (20.3 kDa), fold change in fluorescence over background (MMP-12): 3.21

Compound: FAM-PEG2-PFGNleKβA-K[K(MR)2]-PEG2-k-PEG2-k-3 probe elements [SVC-195]
- MMP-13 (52 kDa), fold change in fluorescent signal (MMP-13 [2]): 9.00
- MMP-9 (83 kDa), fold change in fluorescent signal (MMP-9): 4.84
- signal-to-noise ratio (MMP [4]; additional quencher per probe element): did not further improved

Compound: Ac-PEG2-PFGNleKβA-K[K(FAM)2]-PEG2-k-PEG2-k-3 probe elements [SVC-01-198]
- intensity upon activation by MMP (MMP [4]): much lower intensity

Compound: FAM-Ahx-G-P-K-G-L-K-G-3 probe elements ({5FAM-Ahx}-GPKGLKG; also: three probe elements on a scaffold) [TWB140]
- MMP-13 (52 kDa), fold change in fluorescent signal (MMP-13 [2]): 1.47
- MMP-9 (83 kDa), fold change in fluorescent signal (MMP-9): 1.06

Compound: FAM-PEG2-P-Cha-G-M-H-G-K(MR)-NH2 [SVC-21]
- MMP-2 (20.3 kDa), fold change in fluorescence over background (MMP-2): 4.01
- Inflammatory mediators: Thrombin, fold change in fluorescence over background (Thrombin): 0.97
- MMP-13 (20.4 kDa), fold change in fluorescence over background (MMP-13 [3]): 12.93
- MMP-9 (39.0 kDa), fold change in fluorescence over background (MMP-9): 7.53
- MMP-12 (20.3 kDa), fold change in fluorescence over background (MMP-12): 3.05

Compound: FAM-PEG2-P-Cha-G-M-W-G-K(MR)-NH2 [SVC-17]
- MMP-2 (20.3 kDa), fold change in fluorescence over background (MMP-2): 2.59
- Inflammatory mediators: Thrombin, fold change in fluorescence over background (Thrombin): 1.05
- MMP-13 (20.4 kDa), fold change in fluorescence over background (MMP-13 [3]): 6.5
- MMP-9 (39.0 kDa), fold change in fluorescence over background (MMP-9): 5.07
- MMP-12 (20.3 kDa), fold change in fluorescence over background (MMP-12): 2.59

Compound: FAM-K(FAM)-PEG2-PFGNleKβA-K(FAM)-PEG2-k-PEG2-k-3 probe elements ({5FAM-K(FAM)-PEG2′}-PFG[Nle]K[βAla]-{K(FAM)-PEG2′-code k-PEG2′-code k}; also: three probe elements on a scaffold) [SVC-196]
- signal-to-noise (fold change above the background) [1]: lower signal-to-noise
- selectivity for MMP-2/9 [1]: poor selectivity
- MMP-13 (52 kDa), fold change in fluorescent signal (MMP-13 [2]): 11.80
- MMP-9 (83 kDa), fold change in fluorescent signal (MMP-9): 3.33

Compound: FAM-PEG2-P-F-G-Nle-K-βA-K(MR)-NH2 [AMF-25]
- MMP-2 (20.3 kDa), fold change in fluorescence over background (MMP-2): 1.88
- Inflammatory mediators: Thrombin, fold change in fluorescence over background (Thrombin): 0.96
- MMP-13 (20.4 kDa), fold change in fluorescence over background (MMP-13 [3]): 5.27
- MMP-9 (39.0 kDa), fold change in fluorescence over background (MMP-9): 2.02
- MMP-12 (20.3 kDa), fold change in fluorescence over background (MMP-12): 1.53

Compound: FAM-PEG2-P-F-G-M(S = O)-K-βA-K(MR)-NH2 [SVC-068]
- recognition of the cleavable sequence by MMP (MMP [4]; FIG. 2): not recognised by MMP

Compound: CNC(=O)[C@@H](NC(=O)[C@H](CC(C)C)[C@H](O)C(=O)NO)C(C)(C)C [Marimastat]
- fluorescent intensity of probes A and B after incubation of the enzyme with inhibitor (MMP [5]): significantly reduced
